In US20080058213A1, “Benzoxazole Compounds” (priority 2004, published 2008):

Tests used:
Format in all cases: in vivo
[1] = system: barnyard grass (Echinochloa crusgalli); assay: Weed control test for paddy field (Test Example 1): barnyard grass; conditions: paddy pots, treated at 1.0 leaf stage of barnyard grass, examined after 3 weeks
Source text: (§1) Paddy field soil was filled in 1/10,000 are pots, kneaded with adequate amounts of water and chemical fertilizer, seeded with barnyard grass (Echinochloa crusgalli), Monochoria (Monochoria vaginalis), Japanese bulrush (Scirpus juncoides) and flat sedge (Cyperus serotinus), and further transplanted with 2.0 leaf stage of rice plant. The pots were maintained under the water-filled condition to a depth of 3 cm.
(§2) Wettable powders containing the compounds (1) as identified in Table 1, which were formulated following Production Example 2, were diluted with adequate amount of water and applied to the pots dropwise with pippet at a prescribed dose of the active ingredients per are, at 1.0 leaf stage of the barnyard grass.
(§3) After placing the pots in a glasshouse which was controlled at an average temperature of 25° C. for 3 weeks, herbicidal effect was examined.
(§4) Evaluation of the herbicidal effect is shown in the following six grades, by comparing the condition of untreated control and growth inhibition (%): • 0: 0%-less than 20% • 1: 20%-less than 40% • 2: 40%-less than 60% • 3: 60%-less than 80% • 4: 80%-less than 100% • 5: 100%.

[2] = system: Monochoria (Monochoria vaginalis); assay: Weed control test for paddy field (Test Example 1): Monochoria; conditions: paddy pots, treated at 1.0 leaf stage of barnyard grass, examined after 3 weeks
Source text: as §1, §2, §3, §4

[3] = system: Japanese bulrush (Scirpus juncoides); assay: Weed control test for paddy field (Test Example 1): Japanese bulrush; conditions: paddy pots, treated at 1.0 leaf stage of barnyard grass, examined after 3 weeks
Source text: as §1, §2, §3, §4

[4] = system: flat sedge (Cyperus serotinus); assay: Weed control test for paddy field (Test Example 1): flat sedge; conditions: paddy pots, treated at 1.0 leaf stage of barnyard grass, examined after 3 weeks
Source text: as §1, §2, §3, §4

rice plant = assay: Weed control test for paddy field (Test Example 1): phytotoxicity to rice plant; conditions: paddy pots, treated at 1.0 leaf stage of barnyard grass, examined after 3 weeks
Source text: as §1, §2, §3
Evaluation of phytotoxicity is shown in the following six grades, as compared with the condition of untreated control: • 0: normal growth • 1: little damaged • 2: low damaged • 3: medium damaged • 4: serious damaged • 5: complete killed.

[5] = system: southern crabgrass (Digitaria ciliaris); assay: Soil treatment test for upland field (Test Example 2): southern crabgrass; conditions: soil treatment before germination, examined after 3 weeks
How it was run: (§5)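 Pots of upland soil were seeded and covered, then wettable-powder formulations at the prescribed active-ingredient dose were sprayed onto the soil surface before weed germination, in 15 liters water per are. After 3 weeks in a glasshouse at about 25° C., growth inhibition versus untreated control was scored 0 (<20%) to 5 (100%).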

[6] = system: common lambsquaters (Chenopodium album); assay: Soil treatment test for upland field (Test Example 2): common lambsquaters; conditions: soil treatment before germination, examined after 3 weeks
How it was run: as §5

[7] = system: slender amaranth (Amaranthus viridis); assay: Soil treatment test for upland field (Test Example 2): slender amaranth; conditions: soil treatment before germination, examined after 3 weeks
How it was run: as §5

[8] = system: common purslane (Portulaca oleracea); assay: Soil treatment test for upland field (Test Example 2): common purslane; conditions: soil treatment before germination, examined after 3 weeks
How it was run: as §5

[9] = system: velvetleaf (Abutilon theophrasti); assay: Soil treatment test for upland field (Test Example 2): velvetleaf; conditions: soil treatment before germination, examined after 3 weeks
How it was run: as §5

wheat [10] = assay: Soil treatment test for upland field (Test Example 2): phytotoxicity to wheat; conditions: soil treatment before germination, examined after 3 weeks
corn [11] = assay: Soil treatment test for upland field (Test Example 2): phytotoxicity to corn; conditions: soil treatment before germination, examined after 3 weeks
soybean [12] = assay: Soil treatment test for upland field (Test Example 2): phytotoxicity to soybean; conditions: soil treatment before germination, examined after 3 weeks
southern crabgrass = assay: Foliage treatment test for upland field (Test Example 3): southern crabgrass; conditions: foliage treatment at 1.0-2.0 leaf stage of southern crabgrass, examined after 3 weeks
How it was run: (§6)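 Wettable powders diluted to the prescribed dose and sprayed at 15 L/are at the 1.0-2.0 leaf stage of southern crabgrass on glasshouse-grown plants (25° C average). Effect graded 0-5 after 3 weeks from growth inhibition versus untreated control (0: <20% to 5: 100%).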

common lambsquaters = assay: Foliage treatment test for upland field (Test Example 3): common lambsquaters; conditions: foliage treatment at 1.0-2.0 leaf stage of southern crabgrass, examined after 3 weeks
How it was run: as §6

slender amaranth = assay: Foliage treatment test for upland field (Test Example 3): slender amaranth; conditions: foliage treatment at 1.0-2.0 leaf stage of southern crabgrass, examined after 3 weeks
How it was run: as §6

common purslane = assay: Foliage treatment test for upland field (Test Example 3): common purslane; conditions: foliage treatment at 1.0-2.0 leaf stage of southern crabgrass, examined after 3 weeks
How it was run: as §6

velvetleaf = assay: Foliage treatment test for upland field (Test Example 3): velvetleaf; conditions: foliage treatment at 1.0-2.0 leaf stage of southern crabgrass, examined after 3 weeks
How it was run: as §6

wheat [13] = assay: Foliage treatment test for upland field (Test Example 3): phytotoxicity to wheat; conditions: foliage treatment at 1.0-2.0 leaf stage of southern crabgrass, examined after 3 weeks
How it was run: (§7)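 Crops sown in compost-mixed soil pots, kept in a glasshouse at 25° C. average. Effect scored after 3 weeks versus untreated control on a 0–5 scale (0 normal growth, 5 complete kill).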

corn [14] = assay: Foliage treatment test for upland field (Test Example 3): phytotoxicity to corn; conditions: foliage treatment at 1.0-2.0 leaf stage of southern crabgrass, examined after 3 weeks
How it was run: as §7

soybean [15] = assay: Foliage treatment test for upland field (Test Example 3): phytotoxicity to soybean; conditions: foliage treatment at 1.0-2.0 leaf stage of southern crabgrass, examined after 3 weeks
How it was run: as §7

## COCC(=Cc1ccc(Cl)c(C(F)(F)F)c1)c1nc2cc(Cl)ccc2o1 [Compound 9]
[1]; dose 2.5 g ai/a
  Herbicidal Effect Barnyard grass: 4 (80%-less than 100%)
[1]; dose 5 g ai/a
  Herbicidal Effect Barnyard grass: 5 (100%)
[2]; dose 2.5 g ai/a
  Herbicidal Effect Monochoria vaginalis: 5 (100%)
[2]; dose 5 g ai/a
  Herbicidal Effect Monochoria vaginalis: 5 (100%)
[3]; dose 2.5 g ai/a
  Herbicidal Effect Japanese bulrush: 3 (60%-less than 80%)
[3]; dose 5 g ai/a
  Herbicidal Effect Japanese bulrush: 4 (80%-less than 100%)
[4]; dose 2.5 g ai/a
  Herbicidal Effect Flat sedge: 2 (40%-less than 60%)
[4]; dose 5 g ai/a
  Herbicidal Effect Flat sedge: 3 (60%-less than 80%)
Rice plant; dose 2.5 g ai/a
  Phytotoxicity Rice plant: 0
Rice plant; dose 5 g ai/a
  Phytotoxicity Rice plant: 0
[5]; dose 2.5 g ai/a
  Herbicidal Effect southern crabgrass: 5 (100%)
[5]; dose 5 g ai/a
  Herbicidal Effect southern crabgrass: 5 (100%)
[6]; dose 2.5 g ai/a
  Herbicidal Effect common lambsquaters: 5 (100%)
[6]; dose 5 g ai/a
  Herbicidal Effect common lambsquaters: 5 (100%)
[7]; dose 2.5 g ai/a
  Herbicidal Effect slender amaranth: 5 (100%)
[7]; dose 5 g ai/a
  Herbicidal Effect slender amaranth: 5 (100%)
[8]; dose 2.5 g ai/a
  Herbicidal Effect common purslane: 5 (100%)
[8]; dose 5 g ai/a
  Herbicidal Effect common purslane: 5 (100%)
[9]; dose 2.5 g ai/a
  Herbicidal Effect velvetleaf: 4 (80%-less than 100%)
[9]; dose 5 g ai/a
  Herbicidal Effect velvetleaf: 5 (100%)
Wheat [10]; dose 2.5 g ai/a
  Phytotoxicity wheat: 0
Wheat [10]; dose 5 g ai/a
  Phytotoxicity wheat: 1
Corn [11]; dose 2.5 g ai/a
  Phytotoxicity corn: 1
Corn [11]; dose 5 g ai/a
  Phytotoxicity corn: 1
Soybean [12]; dose 2.5 g ai/a
  Phytotoxicity soybean: 0
Soybean [12]; dose 5 g ai/a
  Phytotoxicity soybean: 0
Southern crabgrass; dose 2.5 g ai/a
  Herbicidal Effect southern crabgrass: 5 (100%)
Southern crabgrass; dose 5 g ai/a
  Herbicidal Effect southern crabgrass: 5 (100%)
Common lambsquaters; dose 2.5 g ai/a
  Herbicidal Effect Common lambsquatters: 5 (100%)
Common lambsquaters; dose 5 g ai/a
  Herbicidal Effect Common lambsquatters: 5 (100%)
Slender amaranth; dose 2.5 g ai/a
  Herbicidal Effect slender amaranth: 5 (100%)
Slender amaranth; dose 5 g ai/a
  Herbicidal Effect slender amaranth: 5 (100%)
Common purslane; dose 2.5 g ai/a
  Herbicidal Effect common purslane: 5 (100%)
Common purslane; dose 5 g ai/a
  Herbicidal Effect common purslane: 5 (100%)
velvetleaf; dose 2.5 g ai/a
  Herbicidal Effect velvetleaf: 4 (80%-less than 100%)
velvetleaf; dose 5 g ai/a
  Herbicidal Effect velvetleaf: 5 (100%)
Wheat [13]; dose 2.5 g ai/a
  Phytotoxicity wheat: 1
Wheat [13]; dose 5 g ai/a
  Phytotoxicity wheat: 1
Corn [14]; dose 2.5 g ai/a
  Phytotoxicity corn: 1
Corn [14]; dose 5 g ai/a
  Phytotoxicity corn: 1
Soybean [15]; dose 2.5 g ai/a
  Phytotoxicity soybean: 0
Soybean [15]; dose 5 g ai/a
  Phytotoxicity soybean: 1

## CCOC/C(=C\c1cccc(C(F)(F)F)c1)c1nc2cc(Cl)ccc2o1 [Compound 11]
[1]; dose 2.5 g ai/a
  Herbicidal Effect Barnyard grass: 5 (100%)
[1]; dose 5 g ai/a
  Herbicidal Effect Barnyard grass: 5 (100%)
[2]; dose 2.5 g ai/a
  Herbicidal Effect Monochoria vaginalis: 5 (100%)
[2]; dose 5 g ai/a
  Herbicidal Effect Monochoria vaginalis: 5 (100%)
[3]; dose 2.5 g ai/a
  Herbicidal Effect Japanese bulrush: 4 (80%-less than 100%)
[3]; dose 5 g ai/a
  Herbicidal Effect Japanese bulrush: 5 (100%)
[4]; dose 2.5 g ai/a
  Herbicidal Effect Flat sedge: 3 (60%-less than 80%)
[4]; dose 5 g ai/a
  Herbicidal Effect Flat sedge: 5 (100%)
Rice plant; dose 2.5 g ai/a
  Phytotoxicity Rice plant: 1
Rice plant; dose 5 g ai/a
  Phytotoxicity Rice plant: 1
[5]; dose 2.5 g ai/a
  Herbicidal Effect southern crabgrass: 5 (100%)
[5]; dose 5 g ai/a
  Herbicidal Effect southern crabgrass: 5 (100%)
[6]; dose 2.5 g ai/a
  Herbicidal Effect common lambsquaters: 5 (100%)
[6]; dose 5 g ai/a
  Herbicidal Effect common lambsquaters: 5 (100%)
[7]; dose 2.5 g ai/a
  Herbicidal Effect slender amaranth: 5 (100%)
[7]; dose 5 g ai/a
  Herbicidal Effect slender amaranth: 5 (100%)
[8]; dose 2.5 g ai/a
  Herbicidal Effect common purslane: 5 (100%)
[8]; dose 5 g ai/a
  Herbicidal Effect common purslane: 5 (100%)
[9]; dose 2.5 g ai/a
  Herbicidal Effect velvetleaf: 3 (60%-less than 80%)
[9]; dose 5 g ai/a
  Herbicidal Effect velvetleaf: 4 (80%-less than 100%)
Wheat [10]; dose 2.5 g ai/a
  Phytotoxicity wheat: 0
Wheat [10]; dose 5 g ai/a
  Phytotoxicity wheat: 0
Corn [11]; dose 2.5 g ai/a
  Phytotoxicity corn: 1
Corn [11]; dose 5 g ai/a
  Phytotoxicity corn: 1
Soybean [12]; dose 2.5 g ai/a
  Phytotoxicity soybean: 0
Soybean [12]; dose 5 g ai/a
  Phytotoxicity soybean: 0
Southern crabgrass; dose 2.5 g ai/a
  Herbicidal Effect southern crabgrass: 5 (100%)
Southern crabgrass; dose 5 g ai/a
  Herbicidal Effect southern crabgrass: 5 (100%)
Common lambsquaters; dose 2.5 g ai/a
  Herbicidal Effect Common lambsquatters: 5 (100%)
Common lambsquaters; dose 5 g ai/a
  Herbicidal Effect Common lambsquatters: 5 (100%)
Slender amaranth; dose 2.5 g ai/a
  Herbicidal Effect slender amaranth: 5 (100%)
Slender amaranth; dose 5 g ai/a
  Herbicidal Effect slender amaranth: 5 (100%)
Common purslane; dose 2.5 g ai/a
  Herbicidal Effect common purslane: 5 (100%)
Common purslane; dose 5 g ai/a
  Herbicidal Effect common purslane: 5 (100%)
velvetleaf; dose 2.5 g ai/a
  Herbicidal Effect velvetleaf: 5 (100%)
velvetleaf; dose 5 g ai/a
  Herbicidal Effect velvetleaf: 5 (100%)
Wheat [13]; dose 2.5 g ai/a
  Phytotoxicity wheat: 1
Wheat [13]; dose 5 g ai/a
  Phytotoxicity wheat: 1
Corn [14]; dose 2.5 g ai/a
  Phytotoxicity corn: 2
Corn [14]; dose 5 g ai/a
  Phytotoxicity corn: 1
Soybean [15]; dose 2.5 g ai/a
  Phytotoxicity soybean: 2
Soybean [15]; dose 5 g ai/a
  Phytotoxicity soybean: 1
